Data set [1] concerns L1210 cells. As to the kind of experiment: Effect of nucleotides on the life span of mice inoculated with L1210 cells. Type of data set: in vivo. To be noted: for 30 days survivors / MST (mean survival time) / T/C: L1210, mice. The source says: The characteristic of the said nucleotide pyrophosphotransferase is that it inhibits the growth of Hela S3, L1210 and L5178Y cells in culture at a relatively low concentration, 5 to 10 units/ml. […] The nucleotide or enzyme is combined with a conventional pharmaceutically acceptable nontoxic carrier for intraperitoneal administration.
Tumor: L1210, Sloan-Kettering line, 10^5 cells/head, i.p.
MST: Mean survival time

Data set [2] concerns nucleotide pyrophosphotransferase, enzymes obtained from the six actinomycetes (Streptomyces adephospholyticus A4668 ATCC 31122, St. aspergilloides ATCC 14808 …). Put plainly: Inhibitory action of nucleosides, nucleotides, bases and general enzyme inhibitors on nucleotide pyrophosphotransferase. In kind it is biochemical. The method, then:
(1) Inorganic phosphate determination by a modification of Nakamura's method: The standard reaction mixture contained 0.25 M glycine-NaOH buffer (pH 10.0), 0.2 ml.; 0.05 M MgCl2, 0.05 ml.; 0.05 M ATP, 0.05 ml.; the enzyme solution (to be diluted by buffer if necessary), 0.1 ml.; and distilled water, 0.1 ml. in a final volume of 0.5 ml. After incubation at 37° C. for 10 minutes, the reaction was terminated by adding 0.5 ml. of 0.2 N acetic acid, and chilling on ice. Immediately, 3 ml. of developing reagent (amidol-molybdate) was added and the mixture was allowed to stand for 10 minutes at 37° C. The optical density was measured at 750 nm and the moles of Pi released were calculated using the standard curve for Pi.
The reaction mixture contained 20 mM adenosine-8-3H-triphosphate (2 mCi/m mole), 5 mM MgCl2, 62.5 mM glycine-NaOH buffer (pH 10.0) and 0.1 ml. of enzyme solution to give a total volume of 0.2 ml. The mixture was incubated at 37° C. for 10 minutes and the incubation was terminated by addition of 0.01 ml. of 1 N acetic acid. Twenty microliters of the reaction mixture were spotted on a polyethyleneimine (PEI) cellulose F thin layer sheet (E. Merck AG), dried and developed in 0.75 M KH2 PO4, pH 3.4, for two hours at room temperature. After chromatography the sheets were dried and exposed to ultraviolet light provided by a Manasul UV lamp to localize the pppApp and AMP formed. The spots on the chromatograms corresponding to pppApp and AMP were cut out and placed in a scintillation vial containing 0.5 ml. of 0.1 N HCl. Vials were boiled for 15 minutes to elute nucleotides adsorbed on the PEI-cellulose and radioactivity was measured by 10 ml. of BRAY Solution in a liquid scintillation counter. A unit of enzyme activity is defined as the amount of enzyme forming 1μ mole of pppApp or AMP per minute under the above condition.
Inhibitory actions of 40 substances which are general enzyme inhibitors such as nucleosides, nucleotides and their bases were examined for their effect on the enzymes obtained from the six actinomycetes.

Setting [3] is: 5 mg/kg.day i.p. once daily for 10 days.
Where [4] appears, read: 10 mg/kg.day i.p. once daily for 10 days.
The mark [5] stands for this setting: 20 mg/kg.day i.p. once daily for 10 days.
The mark [6] stands for this setting: BDF1 mice, L1210 i.p., i.p. once daily for 10 days.
[7] abbreviates: other nucleic acids, concentration not given.
[8] abbreviates: 10 mM each, non-substrate nucleic acids.

Regarding `Nc1ncnc2c1ncn2[C@@H]1O[C@H](COP(=O)(O)OP(=O)(O)OP(=O)(O)O)[C@@H](O)[C@H]1O` [ATP 2Na], the 30 days survivors in data set [1] (setting [3]), in data set [1] (setting [4]) and in data set [1] (setting [5]) was 0/5 each time. For the same molecule, the “MST (mean survival time)” value was 8.7 days in data set [1] (setting [3]), 9.2 days in data set [1] (setting [4]) and 8.6 days in data set [1] (setting [5]). For the same molecule, the T/C is reported as 98% in data set [1] (setting [3]), 103% in data set [1] (setting [4]) and 97% in data set [1] (setting [5]). Besides, in data set [1] (setting [6]), the “Effect on lifespan of tumor-bearing mice” value is reported as “not effective”.
For the molecule `OC[C@H]1O[C@@H](n2cnc3c(O)ncnc32)[C@H](O)[C@@H]1O` [inosine], the “Inhibition of enzyme activity” value in data set [2] (setting [7]) is listed as “not inhibitory”.
Take `Nc1nc2c(ncn2[C@H]2C[C@H](O)[C@@H](COP(=O)(O)OP(=O)(O)O)O2)c(=O)[nH]1` [d-GDP]: in data set [2] (setting [8]), the “Inhibition of enzyme activity” value is on record as “marked inhibition”.
`O=c1cc[nH]c(=O)[nH]1` [uracil]: in data set [2] (setting [7]), the “Inhibition of enzyme activity” value is “not inhibitory”.
Still for that read-out and setting: under `Nc1ncnc2nc[nH]c12` [adenine] stands “not inhibitory”.
On to `Nc1nc2c(ncn2[C@@H]2O[C@H](CO)[C@@H](O)[C@H]2O)c(=O)[nH]1` [guanosine], for which, in data set [2] (setting [8]), the “Inhibition of enzyme activity” value is “marked inhibition”.
As to `Nc1cc[nH]c(=O)n1` [cytosine], the “Inhibition of enzyme activity” value in data set [2] (setting [7]) is “not inhibitory”.
Turning to `O=c1[nH]c(=O)c2[nH]cnc2[nH]1` [xanthine], the “Inhibition of enzyme activity” value in data set [2] (setting [7]) is recorded as “not inhibitory”.
Still for that read-out and setting: for `O=c1[nH]cnc2nc[nH]c12` [hypoxanthine] the value was “not inhibitory”; for `NC(=O)c1ccc[n+]([C@@H]2O[C@H](COP(=O)([O-])OP(=O)(O)OC[C@H]3O[C@@H](n4cnc5c(N)ncnc54)[C@H](O)[C@@H]3O)[C@@H](O)[C@H]2O)c1` [NAD], “not inhibitory”.
The same measure, in the same setting: for `Nc1ncnc2c1ncn2[C@@H]1O[C@H](CO)[C@@H](O)[C@H]1O` [adenosine] the value was “not inhibitory”; for `O=c1ccn([C@@H]2O[C@H](CO)[C@@H](O)[C@H]2O)c(=O)[nH]1` [uridine], “not inhibitory”.
Consider `Nc1ncnc2c1ncn2[C@@H]1O[C@H](COP(=O)(O)OP(=O)(O)OP(=O)(O)O)[C@@H](OP(=O)(O)OP(=O)(O)O)[C@H]1O` [pppApp 7Li, adenosine 5'-triphosphate 3' (2')-diphosphate], for which, in data set [1] (setting [3]), the 30 days survivors is 1/5, the “MST (mean survival time)” value is 14.0 days and the T/C came to 157%. For the same molecule, in data set [1] (setting [4]), the 30 days survivors is on record as 1/5, the “MST (mean survival time)” value turned out to be 12.5 days and the T/C was found to be 140%. For the same molecule, in data set [1] (setting [5]), the 30 days survivors is recorded as 2/5, the “MST (mean survival time)” value was determined as 16.8 days and the T/C was found to be 189%. In data set [1] (setting [6]), the “Accumulation of abdominal dropsy” value is given as “distinctly suppressed”, the “Effect on lifespan of tumor-bearing mice” value is recorded as “prolonged the lifespan” and the “Toxicity to the mice” value is reported as “without causing toxicity”.
In the case of `Nc1nc2nc[nH]c2c(=O)[nH]1` [guanine], in data set [2] (setting [8]), the “Inhibition of enzyme activity” value is reported as “marked inhibition”.
As to `Nc1ccn([C@@H]2O[C@H](COP(=O)(O)O)[C@@H](O)[C@H]2O)c(=O)n1` [CMP], in data set [2] (setting [7]), the “Inhibition of enzyme activity” value is recorded as “not inhibitory”.
As for `Nc1nc2c(ncn2[C@H]2C[C@H](O)[C@@H](COP(=O)(O)OP(=O)(O)OP(=O)(O)O)O2)c(=O)[nH]1` [d-GTP], in data set [2] (setting [8]), the “Inhibition of enzyme activity” value was “marked inhibition”.
Regarding `Nc1ccn([C@@H]2O[C@H](CO)[C@@H](O)[C@H]2O)c(=O)n1` [cytidine], in data set [2] (setting [7]), the “Inhibition of enzyme activity” value is listed as “not inhibitory”.

Source of the values: patent US4141972A, “Purine nucleoside 5'-phosphate (mono, di or tri) 3'(2')-diphosphates and processes for their preparation” (priority 1974, dated 1979).
